# From ChEMBL document CHEMBL1146332, “Parallel solid synthesis of inhibitors of the essential cell division FtsZ enzyme as a new potential class of antibacterials” (Bioorg Med Chem, 2007)
# Calls of active or inactive are those of the source. The rule behind the calls is not given here.
# Columns and labels:
# [1] = tested on: Staphylococcus aureus; test: Antibacterial activity against Staphylococcus aureus ATCC 25923 at 20 g/L by disc diffusion method; assay type: functional; details: for zone of inhibition at 20000 µg/mL: read-out: IZ
# [2] = target: T1, Cell division protein FtsZ (Pseudomonas aeruginosa (strain ATCC 15692 / PAO1 / 1C / PRS 101 / LMG12228), UniProt P47204); test: Inhibition of Pseudomonas aeruginosa FtsZ GTPase activity by spectrophotometric assay
# T1 sequence (P47204 whole entry): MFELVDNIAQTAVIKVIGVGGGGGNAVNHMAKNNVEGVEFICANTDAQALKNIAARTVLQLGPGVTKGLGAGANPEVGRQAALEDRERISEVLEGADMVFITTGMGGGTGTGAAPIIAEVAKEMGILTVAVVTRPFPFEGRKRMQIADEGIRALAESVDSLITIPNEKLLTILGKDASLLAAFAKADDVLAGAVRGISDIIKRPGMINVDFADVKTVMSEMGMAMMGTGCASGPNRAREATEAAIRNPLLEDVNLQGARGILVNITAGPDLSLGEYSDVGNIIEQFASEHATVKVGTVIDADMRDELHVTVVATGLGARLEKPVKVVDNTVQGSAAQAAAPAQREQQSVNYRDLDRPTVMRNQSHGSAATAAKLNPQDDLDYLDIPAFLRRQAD
# [3] = tested on: Escherichia coli; test: Antibacterial activity against Escherichia coli ATCC 25922 by disc diffusion method; assay type: functional, organism-based
Structure (SMILES),Activity [1],IC50 [2],Activity [3],zone of inhibition at 20000 µg/mL [1]
C=CCNC(=O)[C@H](Cn1cnc2c(Cl)nc(N)nc21)NC(=O)N[C@H](C)c1ccccc1,inactive,1800 µM,inactive,
CCCNC(=O)[C@H](Cn1cnc2c(Cl)nc(N)nc21)NS(C)(=O)=O,,700 µM,inactive,15 mm
CCCNC(=O)[C@H](Cn1cnc2c(Cl)nc(N)nc21)NC(=O)N[C@H](C)c1ccccc1,,1800 µM,inactive,11 mm
Nc1nc(Cl)c2ncn(C[C@H](NS(=O)(=O)c3ccccc3)C(=O)O)c2n1,inactive,1200 µM,inactive,
Nc1nc(Cl)c2ncn(C[C@H](NC(=O)Cc3ccccc3)C(=O)O)c2n1,inactive,2000 µM,inactive,
CCCNC(=O)[C@H](Cn1cnc2c(Cl)nc(N)nc21)NS(=O)(=O)c1ccc(C)cc1,,2600 µM,inactive,11 mm
C=CCNC(=O)[C@H](Cn1cnc2c(Cl)nc(N)nc21)NS(=O)(=O)c1ccc(C)cc1,inactive,1700 µM,inactive,
Nc1nc(Cl)c2ncn(C[C@H](NC(=O)Nc3ccccc3)C(=O)O)c2n1,,450 µM,inactive,10 mm
C=CCNC(=O)[C@H](Cn1cnc2c(Cl)nc(N)nc21)NS(C)(=O)=O,,600 µM,inactive,28 mm
NC[C@H]1O[C@H](O[C@H]2[C@H](O)[C@@H](O[C@H]3O[C@H](CO)[C@@H](O)[C@H](N)[C@H]3O)[C@H](N)C[C@@H]2N)[C@H](O)[C@@H](O)[C@@H]1O,,,inactive,
